The source of these data is ChEMBL document CHEMBL4418490, “N-(heteroaryl)-sulfonamide derivatives useful as s100-inhibitors” (2018).

The nature of data set [1]: Plasma concentration in C215 transfected MC38 cells implanted C57BL/6 mouse at 5 mg/kg, po dosed as cassette formulation and measured at 0.5 hrs after post dose by LC-MS analysis. Format: ADME, organism-based.
Data set [2] can be described thus: Plasma concentration in C215 transfected MC38 cells implanted C57BL/6 mouse assessed as N-(5-bromo-3-hydroxypyrazin-2-yl)-1-(3,4-dichlorophenyl)methanesulfonamide level at 1 mg/kg, iv dosed as cassette formulation and measured at 7 hrs after post dose by LC-MS analysis. Format: ADME, organism-based. Particulars: in vivo.
Data set [3] is described as follows: Plasma concentration in C215 transfected MC38 cells implanted C57BL/6 mouse assessed as N-(5-bromo-3-hydroxypyrazin-2-yl)-1-(3,4-dichlorophenyl)methanesulfonamide level at 1 mg/kg, iv dosed as cassette formulation and measured at 1 hr after post dose by LC-MS analysis. The format is ADME, organism-based. Particulars: in vivo.
The nature of data set [4]: Plasma concentration in C215 transfected MC38 cells implanted C57BL/6 mouse assessed as N-(5-bromo-3-hydroxypyrazin-2-yl)-1-(3,4-dichlorophenyl)methanesulfonamide level at 5 mg/kg, po dosed as cassette formulation and measured at 7 hrs after post dose by LC-MS analysis. The format is ADME, organism-based. Particulars: in vivo.
The nature of data set [5]: Plasma concentration in C215 transfected MC38 cells implanted C57BL/6 mouse at 5 mg/kg, po dosed as cassette formulation and measured at 2 hrs after post dose by LC-MS analysis. Format: ADME, organism-based.
A short description of data set [6]: Plasma concentration in C215 transfected MC38 cells implanted C57BL/6 mouse assessed as N-(5-bromo-3-hydroxypyrazin-2-yl)-1-(3,4-dichlorophenyl)methanesulfonamide level at 5 mg/kg, po dosed as cassette formulation and measured at 0.5 hrs after post dose by LC-MS analysis. The format is ADME, organism-based. Particulars: in vivo.
Data set [7] is described as follows: Plasma concentration in C215 transfected MC38 cells implanted C57BL/6 mouse at 1 mg/kg, iv dosed as cassette formulation and measured at 2 hrs after post dose by LC-MS analysis. The format is ADME, organism-based.
Data set [8] can be described thus: Plasma concentration in C215 transfected MC38 cells implanted C57BL/6 mouse assessed as N-(5-bromo-3-hydroxypyrazin-2-yl)-1-(3,4-dichlorophenyl)methanesulfonamide level at 1 mg/kg, iv dosed as cassette formulation and measured at 0.083 hrs after post dose by LC-MS analysis. The format is ADME, organism-based. Particulars: in vivo.
The nature of data set [9]: Plasma concentration in C215 transfected MC38 cells implanted C57BL/6 mouse assessed as N-(5-bromo-3-hydroxypyrazin-2-yl)-1-(3,4-dichlorophenyl)methanesulfonamide level at 1 mg/kg, iv dosed as cassette formulation and measured at 2 hrs after post dose by LC-MS analysis. The format is ADME, organism-based. Particulars: in vivo.
A short description of data set [10]: Plasma concentration in C215 transfected MC38 cells implanted C57BL/6 mouse assessed as N-(5-bromo-3-hydroxypyrazin-2-yl)-1-(3,4-dichlorophenyl)methanesulfonamide level at 5 mg/kg, po dosed as cassette formulation and measured at 2 hrs after post dose by LC-MS analysis. The format is ADME, organism-based. Particulars: in vivo.
Data set [11] is described as follows: Plasma concentration in C215 transfected MC38 cells implanted C57BL/6 mouse at 5 mg/kg, po dosed as cassette formulation and measured at 4 hrs after post dose by LC-MS analysis. Format: ADME, organism-based.
Data set [12] is described as follows: Plasma concentration in C215 transfected MC38 cells implanted C57BL/6 mouse assessed as N-(5-bromo-3-hydroxypyrazin-2-yl)-1-(3,4-dichlorophenyl)methanesulfonamide level at 1 mg/kg, iv dosed as cassette formulation and measured at 4 hrs after post dose by LC-MS analysis. The format is ADME, organism-based. Particulars: in vivo.
The nature of data set [13]: Plasma concentration in C215 transfected MC38 cells implanted C57BL/6 mouse at 1 mg/kg, iv dosed as cassette formulation and measured at 7 hrs after post dose by LC-MS analysis. Format: ADME, organism-based.
Data set [14] in a line: Plasma concentration in C215 transfected MC38 cells implanted C57BL/6 mouse assessed as N-(5-bromo-3-hydroxypyrazin-2-yl)-1-(3,4-dichlorophenyl)methanesulfonamide level at 5 mg/kg, po dosed as cassette formulation and measured at 1 hr after post dose by LC-MS analysis. The format is ADME, organism-based. Particulars: in vivo.
The nature of data set [15]: Plasma concentration in C215 transfected MC38 cells implanted C57BL/6 mouse assessed as N-(5-bromo-3-hydroxypyrazin-2-yl)-1-(3,4-dichlorophenyl)methanesulfonamide level at 1 mg/kg, iv dosed as cassette formulation and measured at 0.5 hrs after post dose by LC-MS analysis. Format: ADME, organism-based. Particulars: in vivo.
The nature of data set [16]: Plasma concentration in C215 transfected MC38 cells implanted C57BL/6 mouse at 1 mg/kg, iv dosed as cassette formulation and measured at 1 hr after post dose by LC-MS analysis. Format: ADME, organism-based.
Data set [17] in a line: Plasma concentration in C215 transfected MC38 cells implanted C57BL/6 mouse at 1 mg/kg, iv dosed as cassette formulation and measured at 4 hrs after post dose by LC-MS analysis. The format is ADME, organism-based.
Data set [18] in a line: Plasma concentration in C215 transfected MC38 cells implanted C57BL/6 mouse assessed as N-(5-bromo-3-hydroxypyrazin-2-yl)-1-(3,4-dichlorophenyl)methanesulfonamide level at 5 mg/kg, po dosed as cassette formulation and measured at 4 hrs after post dose by LC-MS analysis. The format is ADME, organism-based. Particulars: in vivo.
Data set [19] is described as follows: Plasma concentration in C215 transfected MC38 cells implanted C57BL/6 mouse at 1 mg/kg, iv dosed as cassette formulation and measured at 0.5 hrs after post dose by LC-MS analysis. The format is ADME, organism-based.
Data set [20] can be described thus: Plasma concentration in C215 transfected MC38 cells implanted C57BL/6 mouse at 5 mg/kg, po dosed as cassette formulation and measured at 1 hr after post dose by LC-MS analysis. The format is ADME, organism-based.
The nature of data set [21]: Plasma concentration in C215 transfected MC38 cells implanted C57BL/6 mouse at 5 mg/kg, po dosed as cassette formulation and measured at 7 hrs after post dose by LC-MS analysis. Format: ADME, organism-based.
A short description of data set [22]: Plasma concentration in C215 transfected MC38 cells implanted C57BL/6 mouse at 1 mg/kg, iv dosed as cassette formulation and measured at 0.083 hrs after post dose by LC-MS analysis. Format: ADME, organism-based.
Data set [23] in a line: Plasma concentration in C215 transfected MC38 cells implanted C57BL/6 mouse assessed as N-(5-chloro-3-hydroxypyridin-2-yl)-1-(3,5-dichlorophenyl)methanesulfonamide level at 1 mg/kg, iv dosed as cassette formulation and measured at 7 hrs after post dose by LC-MS analysis. Particulars: in vivo. Format: ADME, organism-based.
A short description of data set [24]: Plasma concentration in C215 transfected MC38 cells implanted C57BL/6 mouse assessed as N-(5-chloro-3-hydroxypyridin-2-yl)-1-(3,5-dichlorophenyl)methanesulfonamide level at 5 mg/kg, po dosed as cassette formulation and measured at 1 hr after post dose by LC-MS analysis. Particulars: in vivo. Format: ADME, organism-based.
Data set [25] in a line: Plasma concentration in C215 transfected MC38 cells implanted C57BL/6 mouse assessed as N-(5-chloro-3-hydroxypyridin-2-yl)-1-(3,5-dichlorophenyl)methanesulfonamide level at 5 mg/kg, po dosed as cassette formulation and measured at 0.5 hrs after post dose by LC-MS analysis. The format is ADME, organism-based. Particulars: in vivo.
A short description of data set [26]: Plasma concentration in C215 transfected MC38 cells implanted C57BL/6 mouse assessed as N-(5-chloro-3-hydroxypyridin-2-yl)-1-(3,5-dichlorophenyl)methanesulfonamide level at 1 mg/kg, iv dosed as cassette formulation and measured at 0.5 hrs after post dose by LC-MS analysis. Format: ADME, organism-based. Particulars: in vivo.
A short description of data set [27]: Plasma concentration in C215 transfected MC38 cells implanted C57BL/6 mouse assessed as N-(5-chloro-3-hydroxypyridin-2-yl)-1-(3,5-dichlorophenyl)methanesulfonamide level at 1 mg/kg, iv dosed as cassette formulation and measured at 0.083 hrs after post dose by LC-MS analysis. Format: ADME, organism-based. Particulars: in vivo.
The nature of data set [28]: Plasma concentration in C215 transfected MC38 cells implanted C57BL/6 mouse assessed as N-(5-chloro-3-hydroxypyridin-2-yl)-1-(3,5-dichlorophenyl)methanesulfonamide level at 1 mg/kg, iv dosed as cassette formulation and measured at 1 hr after post dose by LC-MS analysis. The format is ADME, organism-based. Particulars: in vivo.
A short description of data set [29]: Plasma concentration in C215 transfected MC38 cells implanted C57BL/6 mouse assessed as N-(5-chloro-3-hydroxypyridin-2-yl)-1-(3,5-dichlorophenyl)methanesulfonamide level at 1 mg/kg, iv dosed as cassette formulation and measured at 2 hrs after post dose by LC-MS analysis. The format is ADME, organism-based. Particulars: in vivo.
Data set [30] is described as follows: Plasma concentration in C215 transfected MC38 cells implanted C57BL/6 mouse assessed as N-(5-chloro-3-hydroxypyridin-2-yl)-1-(3,5-dichlorophenyl)methanesulfonamide level at 5 mg/kg, po dosed as cassette formulation and measured at 4 hrs after post dose by LC-MS analysis. Format: ADME, organism-based. Particulars: in vivo.
A short description of data set [31]: Plasma concentration in C215 transfected MC38 cells implanted C57BL/6 mouse assessed as N-(5-chloro-3-hydroxypyridin-2-yl)-1-(3,5-dichlorophenyl)methanesulfonamide level at 1 mg/kg, iv dosed as cassette formulation and measured at 4 hrs after post dose by LC-MS analysis. Particulars: in vivo. Format: ADME, organism-based.
Data set [32] is described as follows: Plasma concentration in C215 transfected MC38 cells implanted C57BL/6 mouse assessed as N-(5-chloro-3-hydroxypyridin-2-yl)-1-(3,5-dichlorophenyl)methanesulfonamide level at 5 mg/kg, po dosed as cassette formulation and measured at 7 hrs after post dose by LC-MS analysis. The format is ADME, organism-based. Particulars: in vivo.
Data set [33] in a line: Plasma concentration in C215 transfected MC38 cells implanted C57BL/6 mouse assessed as N-(5-chloro-3-hydroxypyridin-2-yl)-1-(3,5-dichlorophenyl)methanesulfonamide level at 5 mg/kg, po dosed as cassette formulation and measured at 2 hrs after post dose by LC-MS analysis. Format: ADME, organism-based. Particulars: in vivo.
The test system of data set [34] is MC-38. The experiment in a line: Antitumor activity against C215 transfected MC38 cells implanted in C57BL/6 mouse assessed as inhibition of tumor growth at 30 mg/kg, po dosed daily for 16 days starting following day of tumor inoculation. Format: functional, organism-based.
Data set [35] has as its system MC-38. The experiment in a line: Antitumor activity against C215 transfected MC38 cells implanted in C57BL/6 mouse assessed as inhibition of tumor growth at 30 mg/kg, po dosed daily for 15 days starting following day of tumor inoculation. Format: functional, organism-based.

Activity calls are given as the source filed them. No cut-off for these calls is given here.

On to `COc1nc(Br)cnc1NS(=O)(=O)Cc1ccc(Cl)c(Cl)c1`, for which the concentration at 0.5 h was 51700 nM in data set [1] and 16800 nM in data set [19]. Also, the concentration in data set [2] is 200 nM; in [3], 320 nM; in [4], 1100 nM; in data set [6] it was 570 nM; in data set [8], 120 nM; in data set [9], 320 nM. Also, the concentration in [10] is 800 nM; in data set [12] it was 210 nM; in data set [14], 860 nM; in data set [15], 320 nM; in [18], 630 nM. Also, the results for the concentration at 2 h in data set [5] and in data set [7] were 78900 nM and 14900 nM, respectively. The results for the concentration at 4 h in data set [11] and in data set [17] were 59400 nM and 9200 nM, respectively. The concentration at 7 h in data set [13] was 6200 nM; in data set [21], 73500 nM. In addition, the concentration at 1 h was 17500 nM in [16] and 69400 nM in data set [20]. Further, the concentration at 0.083 h in data set [22] was determined as 25200 nM.

Turning to `COc1cc(Cl)cnc1NS(=O)(=O)Cc1cc(Cl)cc(Cl)c1`, the results for the concentration at 0.5 h in data set [1] and in data set [19] were 3600 nM and 550 nM, respectively. Moreover, the concentration stood at 4 nM in data set [23]; 26 nM in data set [24]; 45 nM in [25]; 5 nM in data set [26]; 44 nM in data set [27]; 3 nM in [28]. The concentration amounted to 6 nM in data set [29]; 12 nM in [30]; 4 nM in [31]; 19 nM in [32]; 21 nM in data set [33]. Also, the results for the concentration at 2 h in data set [5] and in data set [7] were 1300 nM and 380 nM, respectively. In addition, the concentration at 4 h in [11] worked out at 850 nM; in [17] it was 170 nM. In addition, the concentration at 7 h in [13] turned out to be 150 nM; in [21], 700 nM. For the same molecule, the values for the concentration at 1 h in data set [16] and in data set [20] were 84 nM and 1600 nM, respectively. In data set [22], this molecule yielded a concentration at 0.083 h of 6300 nM.

For `COc1ncc(S(=O)(=O)Nc2cncc(Cl)c2O)cc1Br`, the TGI entry in the data set with MC-38 [34] is “Active”.

For the molecule `O=S(=O)(Nc1cnccc1O)c1cc(Cl)sc1Cl`, the TGI result with MC-38 [35] is “Active”.
